15 molecules from patent US20260315464A1, “COMPOSITIONS, METHODS, AND SYSTEMS FOR MODULATING SPLICING OF MSH3” (REVIR THERAPEUTICS, INC., priority 2023, published 2026) can be followed below.

The test relates to MSH3. As to the kind of experiment: QPCR assay for levels of MSH3 upon compound treatment in HEK293T or AD293 cells (fold-change of MSH3 transcript, EC50 of MSH3 downregulation; total MSH3 exons 13/14, exons 20/21; Table 8). The test is classed as cell-based. The following applies: for mrna remaining at 1 µM / mrna remaining at 10 µM: Homo sapiens, fold-change of the MSH3 transcript, normalized to GAPDH; for mrna remaining at 1 µM: 1 μM compound; for mrna remaining at 10 µM: 10 μM compound; for EC50: EC50 of MSH3 downregulation, XtalPi. The procedure: HEK293T or AD293 cells were treated with Compound 274 at 1 μM and […]. RNA, cDNA and qPCR was prepared using TaqMan Cells-to-CT Express kit (ThermoFisher Scientific). Taqman assays (ThermoFisher Scientific) were used for quantification of total MSH3 exons 13/14 (cat #4351372, ID #: Hs00988993_ml), total MSH3 exons 20/21 (cat #4351372, ID #: Hs00989000_ml), exon 13/PE14A (Fwd: 5′-[…]; Rev: 5′-[…]; Probe: 5′-[…]) and exon 20/PE21A (Fwd: 5′-[…]; Rev: 5′-[…]; Probe: 5′-[…]) mRNA expression. Taqman GAPDH (cat #4448489, ID #: Hs02758991_g1) was used as a reference for data normalization.

The EC50 is the concentration giving half of the maximal effect. The low end stands for greater potency, the high end for weaker potency.

The structures appear in SMILES notation.

`CC(C)(O)Cn1cc(-c2cc3c(cn2)CN(c2ccc(OC4CC(C)(C)NC(C)(C)C4)nn2)C3=O)cn1` [Compound 21, 6-(1-(2-hydroxy-2-methylpropyl)-1H-pyrazol-4-yl)-2-(6-((2,2,6,6-tetramethylpiperidin-4-yl)oxy)pyridazin-3-yl)-2,3-dihydro-1H-pyrrolo[3,4-c]pyridin-1-one]: the mrna remaining at 1 µM came to 54% and the mrna remaining at 10 µM is 58%.
Taken in the same sequence, the figures for `Cc1nn(C)cc1-c1cc2c(cn1)CN(c1ccc(N(C)C3CC(C)(C)NC(C)(C)C3)nn1)C2=O` [Compound 51, 6-(1,3-dimethyl-1H-pyrazol-4-yl)-2-(6-(methyl(2,2,6,6-tetramethylpiperidin-4-yl)amino)pyridazin-3-yl)-2,3-dihydro-1H-pyrrolo[3,4-c]pyridin-1-one] were 94% and 26%.
Taken in the same sequence, the figures for `Cc1nn(C)cc1-c1cc2c(cn1)CN(c1cnc(N(C)[C@H]3C[C@]4(C)CC[C@](C)(C3)N4)nn1)C2=O` [Compound 55, 6-(1,3-dimethyl-1H-pyrazol-4-yl)-2-(3-(((1R,3s,5S)-1,5-dimethyl-8-azabicyclo[3.2.1]octan-3-yl)(methyl)amino)-1,2,4-triazin-6-yl)-2,3-dihydro-1H-pyrrolo[3,4-c]pyridin-1-one] were 56% and 20%.
As for `Cc1nn(C)cc1-c1cc2c(cn1)CN(c1ccc(OC3CC(C)(C)NC4(CC4)C3)nn1)C2=O` (centres unmarked) [Compound 59, 6-(1,3-dimethyl-1H-pyrazol-4-yl)-2-(6-((5,5-dimethyl-4-azaspiro[2.5]octan-7-yl)oxy)pyridazin-3-yl)-2,3-dihydro-1H-pyrrolo[3,4-c]pyridin-1-one], the mrna remaining at 1 µM is 101% and the mrna remaining at 10 µM was 29%.
Take `CN(c1ccc(N2Cc3cnc(-c4cn(C)nc4C(F)(F)F)cc3C2=O)nn1)[C@H]1C[C@]2(C)CC[C@](C)(C1)N2` [Compound 61, 2-(6-(((1R,3s,5S)-1,5-dimethyl-8-azabicyclo[3.2.1]octan-3-yl)(methyl)amino)pyridazin-3-yl)-6-(1-methyl-3-(trifluoromethyl)-1H-pyrazol-4-yl)-2,3-dihydro-1H-pyrrolo[3,4-c]pyridin-1-one]: the mrna remaining at 1 µM was 44% and the mrna remaining at 10 µM came out at 18%.
For `Cc1nc(C)c(-c2cc3c(cn2)CN(c2ccc(N(C)[C@H]4C[C@]5(C)CC[C@](C)(C4)N5)nn2)C3=O)s1` [Compound 62, 2-(6-(((1R,3s,5S)-1,5-dimethyl-8-azabicyclo[3.2.1]octan-3-yl)(methyl)amino)pyridazin-3-yl)-6-(2,4-dimethylthiazol-5-yl)-2,3-dihydro-1H-pyrrolo[3,4-c]pyridin-1-one], the midpoint of the response, the EC50, lay at 690 nM; the mrna remaining at 1 µM was 18%; the mrna remaining at 10 µM was 8%.
With `Cc1nc(C)c(-c2cc3c(cn2)CN(c2ccc(O[C@H]4C[C@]5(C)CC[C@](C)(C4)N5)nn2)C3=O)s1` [Compound 69, 2-(6-(((1R,3s,5S)-1,5-dimethyl-8-azabicyclo[3.2.1]octan-3-yl)oxy)pyridazin-3-yl)-6-(2,4-dimethylthiazol-5-yl)-2,3-dihydro-1H-pyrrolo[3,4-c]pyridin-1-one], it took 885 nM to reach a half-maximal effect (EC50), the mrna remaining at 1 µM is 30% and the mrna remaining at 10 µM turned out to be 11%.
Turning to `CN(c1ccc(N2Cc3cnc(-c4cnn(C)n4)cc3C2=O)nn1)[C@H]1C[C@]2(C)CC[C@](C)(C1)N2` [Compound 70, 2-(6-(((1R,3s,5S)-1,5-dimethyl-8-azabicyclo[3.2.1]octan-3-yl)(methyl)amino)pyridazin-3-yl)-6-(2-methyl-2H-1,2,3-triazol-4-yl)-2,3-dihydro-1H-pyrrolo[3,4-c]pyridin-1-one], the mrna remaining at 1 µM was determined as 139% and the mrna remaining at 10 µM came out at 56%.
Taken in the same sequence, the figures for `CN(c1ncc(N2Cc3cnc(-c4cnn(C)n4)cc3C2=O)nn1)[C@H]1C[C@]2(C)CC[C@](C)(C1)N2` [Compound 73, 2-(3-(((1R,3s,5S)-1,5-dimethyl-8-azabicyclo[3.2.1]octan-3-yl)(methyl)amino)-1,2,4-triazin-6-yl)-6-(2-methyl-2H-1,2,3-triazol-4-yl)-2,3-dihydro-1H-pyrrolo[3,4-c]pyridin-1-one] were 85% and 70%.
Taken in the same sequence, the figures for `Cn1cc(-c2cc3c(cn2)CN(c2ccc(O[C@H]4C[C@]5(C)CC[C@](C)(C4)N5)nn2)C3=O)c(C(F)(F)F)n1` [Compound 74, 2-(6-(((1R,3s,5S)-1,5-dimethyl-8-azabicyclo[3.2.1]octan-3-yl)oxy)pyridazin-3-yl)-6-(1-methyl-3-(trifluoromethyl)-1H-pyrazol-4-yl)-2,3-dihydro-1H-pyrrolo[3,4-c]pyridin-1-one] were 96% and 33%.
Taken in the same sequence, the figures for `Cc1nn(C)cc1-c1cc2c(cn1)CN(c1ccc(OC3CC(C)(C)NC(C)(C)C3)nn1)C2=O` [Compound 76, 6-(1,3-dimethyl-1H-pyrazol-4-yl)-2-(6-((2,2,6,6-tetramethylpiperidin-4-yl)oxy)pyridazin-3-yl)-2,3-dihydro-1H-pyrrolo[3,4-c]pyridin-1-one] were 98% and 20%.
`Cc1nn(C)cc1-c1cc2c(cn1)CN(c1ccc(O[C@@H]3C[C@@]4(C)CC[C@](C)(N4)[C@@H]3F)nn1)C2=O` [Compound 79, 6-(1,3-dimethyl-1H-pyrazol-4-yl)-2-(6-(((1S,2S,3R,5R)-2-fluoro-1,5-dimethyl-8-azabicyclo[3.2.1]octan-3-yl)oxy)pyridazin-3-yl)-2,3-dihydro-1H-pyrrolo[3,4-c]pyridin-1-one]: the mrna remaining at 1 µM amounted to 92% and the mrna remaining at 10 µM came out at 31%.
Taken in the same sequence, the figures for `Cc1nn(C)cc1-c1cc2c(c(Cl)n1)CN(c1ccc(N(C)[C@H]3C[C@]4(C)CC[C@](C)(C3)N4)nn1)C2=O` [Compound 90, 4-chloro-6-(1,3-dimethyl-1H-pyrazol-4-yl)-2-(6-(((1R,3s,5S)-1,5-dimethyl-8-azabicyclo[3.2.1]octan-3-yl)(methyl)amino)pyridazin-3-yl)-2,3-dihydro-1H-pyrrolo[3,4-c]pyridin-1-one] were 38% and 18%.
In the case of `Cn1cc(-c2cc3c(cn2)CN(c2ccc(OC4CC(C)(C)NC(C)(C)C4)nn2)C3=O)c(F)n1` [Compound 91, 6-(3-fluoro-1-methyl-1H-pyrazol-4-yl)-2-(6-((2,2,6,6-tetramethylpiperidin-4-yl)oxy)pyridazin-3-yl)-2,3-dihydro-1H-pyrrolo[3,4-c]pyridin-1-one], the mrna remaining at 1 µM was found to be 85% and the mrna remaining at 10 µM is 74%.
For `Cc1nn(C)cc1-c1cc2c(c(Cl)n1)CN(c1ccc(O[C@H]3C[C@]4(C)CC[C@](C)(C3)N4)nn1)C2=O` [Compound 93, 4-chloro-6-(1,3-dimethyl-1H-pyrazol-4-yl)-2-(6-(((1R,3s,5S)-1,5-dimethyl-8-azabicyclo[3.2.1]octan-3-yl)oxy)pyridazin-3-yl)-2,3-dihydro-1H-pyrrolo[3,4-c]pyridin-1-one] the same measures were 91% and 72%.
